Here are results for nine molecules from patent publication US7250435B2, “Acylsemicarbazides as cyclin dependent kinase inhibitors useful as anti-cancer and anti-proliferative agents” (Bristol-Myers Squibb Pharma Company, priority 1999, dated 2007).

Broadly, the melting point is the temperature of the solid-liquid transition. The molecule `COc1ccc(-c2[nH]nc3c2C(=O)c2c(NC(=O)CCNc4ccncc4)cccc2-3)cc1` [Example XXXV, 3-(4-methoxyphenyl)-5-(4-pyridinylaminomethylacetamido)indeno[1,2-c]pyrazol-4-one] yielded a melting point greater than 300 °C.
For `CC(=O)Nc1cccc2c1C(=O)c1c-2n[nH]c1-c1cccs1` [Example LXXXIX, 3-(2-thienyl)-5-(acetamido)indeno[1,2-c]pyrazol-4-one] the value was 269 °C; for `CC(=O)Nc1cccc2c1C(=O)c1c-2n[nH]c1C(C)(C)C` [Example LXXXVIII, 3-(t-butyl)-5-(acetamido)indeno[1,2-c]pyrazol-4-one], greater than 250 °C.
To `COc1ccc(-c2[nH]nc3c2C(=O)c2c(NC(=O)NNC(=O)c4ccc(O)c(O)c4)cccc2-3)cc1` [Example CLXI, 3-(4-methoxyphenyl)-5-(2-(3,4-dihydroxybenzoyl)hydrazinecarboxamido)indeno[1,2-c]pyrazol-4-one] belongs greater than 300 °C; to `COc1ccc(-c2[nH]nc3c2C(=O)c2c(NC(=O)NNC(=O)c4ccccc4N)cccc2-3)cc1` [Example CLXV, 3-(4-methoxyphenyl)-5-(2-(2-aminobenzoyl)hydrazinecarboxamido)indeno[1,2-c]pyrazol-4-one], 257 °C.
Consider `COc1ccc(-c2[nH]nc3c2C(=O)c2c(NC(=O)NN(C)C)cccc2-3)cc1` [Example LXIV, 3-(4-methoxyphenyl)-5-(dimethylaminocarbamoyl)aminoindeno[1,2-c]pyrazol-4-one], for which the melting point was greater than 300 °C.
Take `COc1ccc(-c2[nH]nc3c2C(=O)c2c(NC(=O)NCc4ccc(N)cc4)cccc2-3)cc1` [Example XLIV, 3-(4-methoxyphenyl)-5-(4-aminobenzylcarbamoyl)aminoindeno[1,2-c]pyrazol-4-one]: the melting point was greater than 300 °C.
With `CN1CCN(CC(=O)Nc2cccc3c2C(=O)c2c-3n[nH]c2-c2ccc(N3CCOCC3)cc2)CC1` [Example LXXXII, 3-(4-(4-morpholinyl)phenyl)-5-((4-methyl-1-piperazinyl)acetamido)indeno[1,2-c]pyrazol-4-one], the melting point came to 258 °C.
To `CC(=O)Nc1cccc2c1C(=O)c1c-2n[nH]c1C(C)C` [Example LXXXVI, 3-(i-propyl)-5-(acetamido)indeno[1,2-c]pyrazol-4-one] belongs greater than 250 °C.
